{"source": "paper PMC5715147", "about": "“Albumin/vaccine nanocomplexes that assemble in vivo for combination cancer immunotherapy” (Nature Communications, 2017)", "key": {"[1]": {"conditions": "rhesus monkey, in vivo; cited from earlier work", "description": "Here we took a clinically oriented perspective to develop AlbiVax by first repurposing a clinically practiced EB that binds to albumin at binding site I[33], and then conjugating molecular vaccines with an EB derivative. The resulting albumin/AlbiVax nanocomplexes that assemble in vivo were efficiently delivered to LNs and induced potent and durable anti-cancer immunity. EB and derivatives have been developed for preclinical and clinical LN identification[34]–[39]. They have excellent clinical safety profiles[36],[39], and rhesus monkeys survived 25 mg kg^−1 systemically injected EB[40], a dos ... || Safe and robust T cell vaccines would hold great promise for combination cancer immunotherapy. Locally administered vaccines must provide efficient delivery to LNs for effective antitumor immunomodulation. Nanovaccines are a promising approach for efficient vaccine delivery to LNs, and quite a few have been developed preclinically, yet the clinical translation of these nanoformulas has been hindered by limitations in their safety, suitability for reproducible large-scale manufacturing, and in vivo integrity. We chose albumin, one of the most successful carriers of nanomedicines in the clinic, ..."}, "[2]": {"assay": "PET quantification of vaccine delivery to draining LNs after s.c. injection", "assay_type": "in vivo, FVB mice", "conditions": "64Cu-labeled, s.c. at tail base", "protocol": "AlbiVax was radiolabeled with ^64Cu for PET. To label ^64Cu via chelation, a NOTA-functionalized MEB (NMEB) was synthesized and conjugated with vaccines. […] The reaction was shaken for 0.5 h at 37 °C. Thereafter, the radiochemical purity was determined using iTLC plates (Fisher Scientific), developed in 0.1 M citric acid (pH 5).\nFemale FVB mice (6–8 weeks) were used in all PET imaging studies in naive mice. C57BL/6 mice (6–8 weeks) were used in PET imaging of tumor-bearing mice. Mice were anesthetized using isoflurane/O^2 (2% v v^−1) before injection. Anesthetized mice were injected s.c. at the base of tail with ^64Cu-labeled vaccines (4.44−5.55 MBq/120–150 μCi each mouse) in PBS (100 μL). At indicated time points post injection, mice were scanned on an Inveon DPET scanner (Siemens Medical Solutions, Malvern, PA). PET images were reconstructed without correction for attenuation or scattering using a three-dimensional ordered subsets expectation maximization algorithm. ASI Pro VM^TM software was used for image analysis. Regions of interest (ROI) were drawn on LNs to calculate the %ID/g."}, "[3]": {"assay": "Biodistribution in resected organs by γ counting", "set-up": "species or system FVB mice", "conditions": "mouse, in vivo, sc", "protocol": "The above mice were killed at specified time points. Organs and blood were collected and wet weighed. The collected organs and blood, together with a series of standard solutions, were measured for ^64Cu radioactivity on a gamma counter (Wallac Wizard 1480, PerkinElmer). The radioactivity of organs and blood was converted to calculate the percentages of the injected dose (%ID) in organs of interest and the percentages of the injected dose per gram of tissue (%ID/g)."}, "[4]": {"conditions": "human, in vivo; cited from earlier work"}}, "data": [{"compound": "Cc1cc(-c2ccc(/N=N/c3ccc4c(S(=O)(=O)O)cc(S(=O)(=O)O)c(N)c4c3O)c(C)c2)ccc1/N=N/c1ccc2c(S(=O)(=O)O)cc(S(=O)(=O)O)c(N)c2c1O", "note": "[EB, Evans blue]", "values": [{"measurement": "systemically injected dose survived", "setting": "[1]", "result": 25, "unit": "mg/kg"}]}, {"compound": "CC(C)C[C@H](NC(=O)[C@H](Cc1c[nH]c2ccccc12)NC(=O)[C@@H](NC(=O)[C@H](Cc1ccccc1)NC(=O)[C@H](Cc1ccccc1)NC(=O)[C@H](CC(=O)O)NC(=O)[C@H](Cc1ccc(O)cc1)NC(=O)[C@@H](NC(=O)[C@H](CO)NC(=O)[C@@H](N)CS)C(C)C)C(C)C)C(=O)O", "note": "[Trp2]", "values": [{"measurement": "LN delivery (in words)", "setting": "[2]; PET", "result": "no detectable"}]}, {"compound": "CpG: CpG1826 (TCCATGACGTTCCTGACGTT), phosphorothioate oligodeoxynucleotide, TLR9 agonist", "values": [{"measurement": "%ID/g in IN LNs on day 5", "setting": "[3]", "result": "2.5 ± 1.3", "unit": "%ID/g"}, {"measurement": "percent injection dose per gram of tissue in IN LNs on day 3", "setting": "[3]", "result": "8.3 ± 4.7", "unit": "%ID/g"}, {"measurement": "injection dose (%ID) delivered to inguinal (IN) and axillary (AX) LNs", "setting": "[2]; 4.4–5.5 Mbq, decay-corrected PET over 3 days, n = 4–8", "result": "< 0.3", "unit": "%ID"}]}, {"compound": "albumin", "values": [{"measurement": "half-life", "setting": "[4]", "result": "over 20 days"}]}]}
